Measurements: patent publication US5516908A, “1,3-dihydro-2H-imidazo-[4,5-β]quinolin-2-one derivatives and intermediates” (Janssen Pharmaceutica N.V., priority 1995, dated 1996)

Assays:
Format in all cases: biochemical
Human MNL PDE IV = test: Inhibition of Phosphodiesterase Type IV From Human Mononuclear Lymphocytes (MNL); settings: human mononuclear lymphocyte PDE IV; in presence of 10^-4 M cGMP; 1.2 μM 3H-cAMP, pH 7.1, 10 min at 37° C.
Method: (§1) The alleviating and/or curing effect of the instant compounds on allergic and atopic diseases was assessed by an in vitro assay system to detect an inhibiting effect on the phosphodiesterase type III in human and canine muscle cells and a similar inhibiting effect on the phosphodiesterase type IV in human mononuclear lymphocytes.
Human blood was obtained from donors that were documented before to suffer from allergic or atopic disease. 35 ml of blood was obtained from the […] veins by venipuncture and collected in 5 ml 100 mM K2 EDTA pH 7.1. 4 ml of 0.6% dextran in saline was added and the mixture was left at room temperature for 30 min. The red blood cell free supernatant was collected, layered gently on a Lymphoprep solution and centrifuged at 750 g for 15 min at 18° C. The interfase was collected, diluted with a buffer containing […], 50 mM KCl and 100 mM HEPES at pH 7.4, and centrifuged at 900 g for 10 min at 10° C. The resulting pellet was resuspended in the same buffer.
The suspension of MNLs was adjusted to 1% Triton X100 and 0.3% Brij35 and frozen in liquid N2. After 3 freeze-thawn cycles, the suspension was homogenized at 4° C. in a Polytron PT3000 (Kinematica AG) homogenizer (PT-DA 3020/2 TS) at 8000 rpm for 5×10 sec, followed by sonication at 4° C. in a Branson sonifier 250 at a frequency output of 20000 Hz, working output 40 W for 10×30 sec. The homogenate was centrifuged at 10000 g for 10 min. The resulting supernatant was used as source for PDE IV activity. The incubation mixture (pH 7.1) (200 μl) contained 40 mM Tris, 3.75 mM 2-mercapto-ethanol, 6 mM magnesium chloride, 1.2 μM ^3 H-cAMP (310 mCi/mmole) and the phosphodiesterase type IV, the amount depending on the enzymatic activity. […] To block contaminating PDE III activity, PDE IV activity was measured in the presence of 10^-4 M cGMP.
(§2) When the effect of different compounds on phosphodiesterase activity was tested, the medium without cAMP was incubated with the compound(s) or its carrier (DMSO-1% final concentration) for 5 min. The enzymatic reaction was started by addition of ^3 H-cAMP and stopped 10 min later after transferring the tubes in a waterbath at 100° C. for 40 sec. After cooling to room temperature, alkaline phosphatase (0.25 μg/ml) was added and the mixture was left at room temperature for 20 min. The mixture was subsequently applied to a 1 ml DEAE-Sephadex A-25 column (pasteur pipet) and washed twice with 3 ml 20 mM Tris-HCl at pH 7.4. The ^3 H-labelled reaction products in the eluate were quantified by liquid scintillation counting.
The inhibiting effect of the present compounds on human mononuclear lymphocyte phosphodiesterase PDE IV was measured at different concentrations of the instant compounds. The IC50 values were calculated graphically from the thus obtained inhibition values.

Human heart PDE III = target: T1, Human heart PDE III (Homo sapiens, UniProt Q14432); test: Inhibition of Phosphodiesterase Type III (PDE III), human heart; settings: 1.2 μM 3H-cAMP, pH 7.1, 10 min at 37° C.
T1 construct: canine and human heart phosphodiesterase PDE III; from tissue; host or cells: human heart (muscle)
T1 sequence (Q14432 whole entry): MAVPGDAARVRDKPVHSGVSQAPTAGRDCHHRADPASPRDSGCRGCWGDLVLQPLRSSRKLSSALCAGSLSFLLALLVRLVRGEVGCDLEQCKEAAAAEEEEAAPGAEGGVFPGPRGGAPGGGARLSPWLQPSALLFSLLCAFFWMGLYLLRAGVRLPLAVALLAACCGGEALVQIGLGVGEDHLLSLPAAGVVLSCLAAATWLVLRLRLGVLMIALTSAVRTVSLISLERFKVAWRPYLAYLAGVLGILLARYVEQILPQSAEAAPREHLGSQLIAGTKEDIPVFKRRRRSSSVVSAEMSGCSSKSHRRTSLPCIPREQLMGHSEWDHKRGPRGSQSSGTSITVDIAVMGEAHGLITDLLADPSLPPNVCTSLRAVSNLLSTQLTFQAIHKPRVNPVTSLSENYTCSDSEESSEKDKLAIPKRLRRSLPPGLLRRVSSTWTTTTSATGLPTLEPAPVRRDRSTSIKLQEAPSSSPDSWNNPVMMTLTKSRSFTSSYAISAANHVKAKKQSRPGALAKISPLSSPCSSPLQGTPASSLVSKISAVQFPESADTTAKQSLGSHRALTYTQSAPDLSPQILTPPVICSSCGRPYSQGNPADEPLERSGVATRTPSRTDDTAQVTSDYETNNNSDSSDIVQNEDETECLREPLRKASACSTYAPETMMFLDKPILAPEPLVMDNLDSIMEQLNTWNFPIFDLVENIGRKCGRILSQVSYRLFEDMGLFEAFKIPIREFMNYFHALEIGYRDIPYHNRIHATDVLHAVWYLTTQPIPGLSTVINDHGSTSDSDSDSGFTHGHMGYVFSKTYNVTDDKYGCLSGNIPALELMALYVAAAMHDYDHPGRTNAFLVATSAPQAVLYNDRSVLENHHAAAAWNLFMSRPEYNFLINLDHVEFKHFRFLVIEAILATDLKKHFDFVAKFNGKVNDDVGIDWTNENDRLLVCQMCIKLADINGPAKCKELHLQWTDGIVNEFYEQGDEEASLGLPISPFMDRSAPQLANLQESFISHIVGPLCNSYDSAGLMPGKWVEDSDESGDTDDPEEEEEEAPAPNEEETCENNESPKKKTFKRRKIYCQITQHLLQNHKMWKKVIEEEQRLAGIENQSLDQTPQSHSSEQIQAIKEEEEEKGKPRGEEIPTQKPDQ
Method: as §1
(§3) The incubation mixture (pH 7.1) (200 μl) contained 40 mM Tris, 3.75 mM 2-mercaptoethanol, 6 mM magnesium chloride, 1.2 μM ^3 H-cAMP (310 mCi/mmole) and the phosphodiesterase type III, the amount depending on the enzymatic activity.
as §2
(§4) The inhibiting effect of the present compounds on canine and human heart phosphodiesterase PDE III was measured at different concentrations of the instant compounds. The IC50 values were calculated graphically from the thus obtained inhibition values.

Canine heart PDE III = target: T2, Canine heart PDE III (Canis lupus familiaris, UniProt A0A8I3NYE0); test: Inhibition of Phosphodiesterase Type III (PDE III), canine heart; settings: 1.2 μM 3H-cAMP, pH 7.1, 10 min at 37° C.
T2 construct: canine and human heart phosphodiesterase PDE III; from tissue; host or cells: canine heart (muscle)
T2 sequence (A0A8I3NYE0 1-1135): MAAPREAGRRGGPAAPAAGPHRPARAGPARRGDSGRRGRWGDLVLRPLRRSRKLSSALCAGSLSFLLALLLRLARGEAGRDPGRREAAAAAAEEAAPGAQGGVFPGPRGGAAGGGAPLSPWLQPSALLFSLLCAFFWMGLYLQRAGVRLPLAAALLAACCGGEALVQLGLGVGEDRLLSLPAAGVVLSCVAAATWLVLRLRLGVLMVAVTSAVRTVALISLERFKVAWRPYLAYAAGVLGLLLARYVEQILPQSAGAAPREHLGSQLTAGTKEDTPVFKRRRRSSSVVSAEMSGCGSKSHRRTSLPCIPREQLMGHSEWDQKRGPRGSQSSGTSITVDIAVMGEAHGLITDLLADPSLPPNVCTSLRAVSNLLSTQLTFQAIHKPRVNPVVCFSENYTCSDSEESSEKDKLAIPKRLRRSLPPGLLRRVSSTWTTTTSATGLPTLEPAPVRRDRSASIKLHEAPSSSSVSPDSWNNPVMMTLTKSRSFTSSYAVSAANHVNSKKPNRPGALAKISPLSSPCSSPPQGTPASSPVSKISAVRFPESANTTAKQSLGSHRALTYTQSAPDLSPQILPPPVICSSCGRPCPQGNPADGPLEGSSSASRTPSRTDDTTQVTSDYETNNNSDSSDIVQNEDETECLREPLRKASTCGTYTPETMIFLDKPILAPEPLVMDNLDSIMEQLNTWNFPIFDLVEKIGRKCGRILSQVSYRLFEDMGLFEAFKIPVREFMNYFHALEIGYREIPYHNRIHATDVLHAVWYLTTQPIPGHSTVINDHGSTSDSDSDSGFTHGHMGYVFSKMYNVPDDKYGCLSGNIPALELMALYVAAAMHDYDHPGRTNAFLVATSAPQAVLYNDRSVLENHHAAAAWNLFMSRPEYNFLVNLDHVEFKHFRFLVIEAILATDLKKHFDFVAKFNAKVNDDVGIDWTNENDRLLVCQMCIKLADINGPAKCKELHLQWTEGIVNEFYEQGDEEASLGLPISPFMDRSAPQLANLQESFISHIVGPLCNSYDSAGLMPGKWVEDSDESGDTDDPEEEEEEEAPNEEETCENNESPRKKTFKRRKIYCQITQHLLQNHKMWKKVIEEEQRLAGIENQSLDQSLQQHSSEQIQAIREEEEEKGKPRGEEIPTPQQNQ
Method: as §1, §3, §2, §4

SMILES	IC50 (Human MNL PDE IV) [nM]	IC50 (Human heart PDE III) [nM]	IC50 (Canine heart PDE III) [nM]
CN(C(=O)CO/N=C(/c1ccccc1)c1ccc2nc3[nH]c(=O)[nH]c3cc2c1)C1CCCCC1 [Compound 7]	2600	27	32
CN(C(=O)CO/N=C(\c1ccccc1)c1ccc2nc3[nH]c(=O)[nH]c3cc2c1)C1CCCCC1 [Compound 10, (E)-N-cyclohexyl-2-[[[(2,3-dihydro-2-oxo-1H-imidazo{4,5-b]quinolin-7-yl)phenylmethylene]amino]oxy]-N-methylacetamide]	490	17	14
COc1cccc(C(=O)c2ccc3nc4[nH]c(=O)[nH]c4cc3c2)c1 [Compound 9]		18	21
O=C(c1cccnc1)c1ccc2nc3[nH]c(=O)[nH]c3cc2c1 [Compound 5, 1,3-dihydro-7-(3-pyridinylcarbonyl-2H-imidazo[4,5-b]quinolin-2-one monohydrate]		120	42
Cc1ccc(C(=O)c2ccc3nc4[nH]c(=O)[nH]c4cc3c2)cc1 [Compound 4, 1,3-dihydro-7-(4-methylbenzoyl)-2H-imidazo[4,5-b]quinolin-2-one]		18	26
O=C(c1ccccc1)c1ccc2nc3[nH]c(=O)[nH]c3cc2c1 [Compound 1, 7-benzoyl-1,3-dihydro-2H-imidazo[4,5-b]quinolin-2-one]	5800	42	10
CCOC(=O)CCCCO/N=C(\c1cccnc1)c1ccc2nc3[nH]c(=O)[nH]c3cc2c1 [Compound 6]	1700	44	30
O=C(c1ccc(F)cc1)c1ccc2nc3[nH]c(=O)[nH]c3cc2c1 [Compound 3, 7-(4-fluorobenzoyl)-1,3-dihydro-2H-imidazo[4,5-b]quinolin-2-one]		36	37
COc1ccc(C(=O)c2ccc3nc4[nH]c(=O)[nH]c4cc3c2)cc1OC [Compound 2, 7-(3,4-dimethoxybenzoyl)-1,3-dihydro-2H-imidazo[4,5-b]quinolin-2-one]	4500	86	33

Next, values leading:

IC50 (Human MNL PDE IV) [nM]	IC50 (Human heart PDE III) [nM]	IC50 (Canine heart PDE III) [nM]	SMILES
	100	100	O=C(O)CCCCON=C(c1cccnc1)c1ccc2nc3[nH]c(=O)[nH]c3cc2c1 [Compound 14, (E+Z)-5-[[[(2,3-dihydro-2-oxo-1H-imidazo[4,5-b]quinolin-7-yl)(3-pyridinyl)methylene]amino]oxy]pentanoic acid monohydrate]
3600	33	29	CCOC(=O)CCCCO/N=C(/c1cccnc1)c1ccc2nc3[nH]c(=O)[nH]c3cc2c1 [Compound 12]
	39	26	CCOC(=O)CO/N=C/c1ccc2nc3[nH]c(=O)[nH]c3cc2c1 [Compound 11]
	49	84	O=C(O)CCCCO/N=C(\c1cccnc1)c1ccc2nc3[nH]c(=O)[nH]c3cc2c1 [Compound 13, (Z)-5-[[[(2,3-dihydro-2-oxo-1H-imidazo[4,5-b]-quinolin-7-yl)(3-pyridinyl)methylene]amino]oxy]pentanoic acid]
